Assay results as given in patent US10072304B2, “Nuclear localization of Src-family tyrosine kinases is required for growth factor-induced euchromatinization” (National University Corporation Chiba University, priority 2009, dated 2018).

Assays:
COS-1 cells [1] = assay: Quantitation of chromatin condensation levels (S.D. value of PI intensity per pixel) in COS-1 cells; type: cell-based, monkey
Experimental: COS-1, HeLa cells (Japanese Collection of Research Bioresources, Osaka), MCF-7 (provided by H. Saya), A431 (provided by M. N. Fukuda), HEK293 (provided by […]), HCT116 (provided by T. Tomonaga), and SYF ([37]; provided by M. Okada and S. Nada) cells were cultured in Iscove's modified DME containing 5% fetal bovine serum (FBS). Cells were transiently transfected with 0.5 μg of plasmid vector using Trans IT Transfection reagent (Mirus) or with 1 μg of plasmid vector using linear polyethylenimine (25 kDa) (Polyscience, Inc.). For growth factor stimulation, COS-1 cells were starved under low serum conditions (0.05% FBS) for 24 h and restimulated with serum (5% FBS). For stimulation of endogenous SFKs, cells were treated with 3 mM Na3VO4 for 3 h, and SFK-mediated tyrosine phosphorylation was verified by treatment with 10 μM PP2 (SFK inhibitor; Calbiochem) or 100 nM wortmannin (PI3K inhibitor; Alomone Labs) for 21 h before Na3VO4 treatment. Na3VO4 was dissolved at 500 mM in 500 mM unbuffered HEPES before use. For preparation of stable transfectant clones, SYF cells transfected with c-Src-wt or Lyn-wt were selected in 333 μg/mL Zeocin (Invitrogen), and COS-1 cells were transfected with the BOSH2BGFP-N1 vector, which encodes GFP-tagged histone H2B ([39,40]; provided by H. Saya), were selected in 3 μg/mL blasticidin. Confocal and Nomarski differential-interference-contrast images were obtained using a Fluoview FV500 confocal laser scanning microscope with a 40×1.00 NA oil and a 100×1.35 NA oil immersion objective (Olympus, Tokyo) and an LSM 510 confocal laser scanning microscope with a 63×1.40 NA oil immersion objective (Zeiss), as described. One planar (xy) section slice (0.6-μm thickness) is shown in all experiments. In brief, cells were fixed with 4% paraformaldehyde for 20 min, and permeabilized in phosphate-buffered saline (PBS) containing 0.1% saponin and 3% bovine serum albumin at room temperature. Cells were subsequently reacted with an appropriate primary antibody for 1 h, washed with PBS containing 0.1% saponin, stained with FITC- or TRITC-conjugated secondary antibody for 1 h. […] To ensure no bleed-through from the fluorescein signal into the red channel, fluorescein and rhodamine were independently excited at 488 nm and 543 nm, respectively. PI was excited at 488 or 543 nm. Emission signals were detected between 505 and 525 nm for fluorescein, at more than 560 nm for rhodamine and more than 610 nm for PI [44]. Composite figures were prepared using Photoshop 5.0 and Illustrator 9.0 software (Adobe). For nuclear staining with anti-pTyr, anti-ATF-2 […]/71, and anti-histone H3K4me3 antibodies, cells were in situ extracted with 0.5% Triton X-100 at 4° C. for 3 min before fixation with 4% paraformaldehyde. For HP1α staining, cells were fixed in 100% methanol at -20° C. for 10 min followed by permeabilization for 30 min in PBS containing 0.1% Triton X-100 at room temperature. Cells were reacted with anti-HP1α antibody for 1 h at room temperature, washed with PBS four times, and stained with secondary antibody for 1 h. Fluorescence intensity plots of anti-histone H3K4me3, anti-ATF-2 […]/71 and anti-HP1α antibody and PI staining (see FIGS. 18B, 19B, and 20B, respectively) were generated using Fluoview version 4.3 software (Olympus, Tokyo). For detection of the kinase activity of nuclear SFKs, purified nuclei suspended in kinase buffer (50 mM HEPES-NaOH, pH7.4, 5 mM MgCl2, 5 mM MnCl2 and 0.1 mM Na3VO4) were preincubated with or without 10 μM PP2 at 30° C. for 30 min, and subsequently incubated with 5 or 10 μM ATP at 30° C. for 30 min, followed by cytocentrifugation at 200×g for 5 min and fixation with 4% paraformaldehyde. DNA was stained with 20 μg/mL PI and 200 μg/mL RNase A for 30 min. Mean fluorescence intensity of tyrosine-phosphorylated proteins in the nucleus was measured using the ImageJ software (National Institutes of Health). Confocal images of PI-stained nuclei were obtained as described above. […]

COS-1 cells [2] = assay: Cell cycle analysis: DNA content by flow cytometry in COS-1 cells; type: cell-based, monkey; conditions: H2O2 at 1, 10 and 20 mM for 1 h, FIGS. 11A-11D
Experimental: To obtain S- and G2-phase cells, COS-1 cells grown in Iscove's modified DME containing 5% FBS were blocked at S phase by exposure to 3 mM thymidine for 18 h. Cells were washed free of thymidine with PBS, and cultured for further 2 or 5 h. Cells were detached by trypsinization, fixed in 1.5% paraformaldehyde at 4° C. for 1 h, and then permeabilized with 70% ethanol at −30° C. for more than 1 h. Fixed cells were washed twice with PBS containing 3% FBS, and treated with 200 μg/ml RNase A and 50 μg/ml PI at 37° C. for 30 min to stain DNA. Cell cycle phase was analyzed by flow cytometry using a MoFlo cell sorter equipped with a 488-nm argon laser (Beckman Coulter). Cells transfected with Lyn-HA or NLS-Lyn-HA were cultured for 36 h, fixed and permeabilized as described above. Fixed cells were washed with PBS containing 3% FBS, stained with anti-HA antibody for 1 h, washed with PBS and stained with FITC-conjugated secondary antibody for 1 h. After DNA staining with PI as described above, cell cycle phase was analyzed in cells expressing Lyn-HA or NLS-Lyn-HA.

Compound	level of DNA condensation (S.D. value) (COS-1 cells [1]; COS-1, H2O2 at 1, 10 and 20 mM for 1 h, FIG. 12)	apoptotic SubG1 cells (histograms of DNA content) (COS-1 cells [2])	basal levels of chromatin condensation (COS-1 cells [1]; cells not specified, U0126 concentration not given, data not shown)
OO [H2O2, hydrogen peroxide]	corresponded to the degree of apoptosis	induction of apoptotic SubG1 cells in a dose-dependent manner	
N#CC(=C(/N)Sc1ccccc1N)/C(C#N)=C(\N)Sc1ccccc1N [U0126]			slightly decreased
